The values below are quoted from earlier work in patent US20020122835A1, “Compositions for enhancing muscle tissue recovery and repair” (priority 2001, published 2002).

The conditions of series [1]: oral administration, human volunteers; Kobayashi et al 1998.

`CCNC(=O)CC[C@H](N)C(=O)O` [L-theanine]: the “safety in animal experiments” value is “safe”. In addition, the feeling of relaxation result in series [1] is recorded as “caused a feeling of relaxation”.
